# Experimental data published in patent publication US20180148687A1 (priority 2015, published 2018).
# Like-named read-outs stand apart in the source and are kept apart here.
# Assays:
# P2X3 receptors = molecular target: T1, P2X3 receptors (Homo sapiens, UniProt P56373); assay type: cell-based
# T1 sequence (P56373 1-397): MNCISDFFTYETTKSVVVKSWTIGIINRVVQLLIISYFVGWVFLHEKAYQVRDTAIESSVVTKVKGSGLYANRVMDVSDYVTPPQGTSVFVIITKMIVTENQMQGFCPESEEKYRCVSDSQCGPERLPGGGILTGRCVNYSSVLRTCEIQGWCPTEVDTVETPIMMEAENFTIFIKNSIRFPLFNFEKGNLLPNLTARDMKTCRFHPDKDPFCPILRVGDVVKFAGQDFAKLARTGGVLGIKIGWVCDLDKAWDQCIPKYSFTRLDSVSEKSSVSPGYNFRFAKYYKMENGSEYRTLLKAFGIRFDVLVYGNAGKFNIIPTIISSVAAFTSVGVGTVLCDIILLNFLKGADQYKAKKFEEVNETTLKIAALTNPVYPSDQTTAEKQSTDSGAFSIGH
# Experimental: (§1) Differentiated cells at 1-2 weeks were loaded with Fluo-4-AM fluorescence dye (Invitrogen, Calif.) for 1 hr incubation followed by 45 mins period for de-esterification. Cells were washed and incubated in Hanks' balanced salt solution (HBSS), supplemented with 25 mM HEPES buffer, 5.5 mM Glucose. Calcium flux was monitored using an Olympus IX81 inverted epi-fluorescence microscope (Olympus, Markham, ON) coupled to a xenon arc lamp (EXFO, Quebec, QC). Indicated agonists, α,β-methylene-ATP or capsaicin, were diluted in the aforementioned solution and added to the well to give the final stimulation concentration (30 μM α,β-methylene-ATP, 1 μM capsaicin) using a dropping pipette and aspirator system. Fluorescence images were collected using an EMCCD camera (Photometrics, Tucson, Ark.) every 2 s through a GFP filter cube (Semrock, Rochester, N.Y.). In a subset of wells, ionomycin was added as a second stimulation for the dye loading control. […] Off-line analysis of the intensity pattern of Fluo-4 signal was performed in ImageJ (NIH, Bethesda, Md.).
# [1] = tested on: BD-iNPC derived sensory neurons; assay: In vitro chemotherapy induced neuropathy model: neurite length and cell count; assay type: cell-based, human; settings: 48 hours after treatment
# Description: This miniaturized and automated approach illustrates the potential utility of these converted cells as an in vitro model of human axonopathy for drug-discovery and form the basis to expand to other PNS and CNS disorders.
# TRPV1 vanilloid receptor = molecular target: T2, TRPV1 vanilloid receptor (Homo sapiens, UniProt Q8NER1); assay: Calcium imaging (Fluo-4) of BD-iNPC derived sensory neurons, capsaicin response; assay type: cell-based; settings: 1 μM
# T2 construct: endogenous in cells; host or cells: nociceptive sensory neurons differentiated from human blood derived iNPCs
# Experimental: as §1
# [2] = tested on: voltage-activated sodium channels; assay type: cell-based, human
# T2 sequence (Q8NER1 whole entry): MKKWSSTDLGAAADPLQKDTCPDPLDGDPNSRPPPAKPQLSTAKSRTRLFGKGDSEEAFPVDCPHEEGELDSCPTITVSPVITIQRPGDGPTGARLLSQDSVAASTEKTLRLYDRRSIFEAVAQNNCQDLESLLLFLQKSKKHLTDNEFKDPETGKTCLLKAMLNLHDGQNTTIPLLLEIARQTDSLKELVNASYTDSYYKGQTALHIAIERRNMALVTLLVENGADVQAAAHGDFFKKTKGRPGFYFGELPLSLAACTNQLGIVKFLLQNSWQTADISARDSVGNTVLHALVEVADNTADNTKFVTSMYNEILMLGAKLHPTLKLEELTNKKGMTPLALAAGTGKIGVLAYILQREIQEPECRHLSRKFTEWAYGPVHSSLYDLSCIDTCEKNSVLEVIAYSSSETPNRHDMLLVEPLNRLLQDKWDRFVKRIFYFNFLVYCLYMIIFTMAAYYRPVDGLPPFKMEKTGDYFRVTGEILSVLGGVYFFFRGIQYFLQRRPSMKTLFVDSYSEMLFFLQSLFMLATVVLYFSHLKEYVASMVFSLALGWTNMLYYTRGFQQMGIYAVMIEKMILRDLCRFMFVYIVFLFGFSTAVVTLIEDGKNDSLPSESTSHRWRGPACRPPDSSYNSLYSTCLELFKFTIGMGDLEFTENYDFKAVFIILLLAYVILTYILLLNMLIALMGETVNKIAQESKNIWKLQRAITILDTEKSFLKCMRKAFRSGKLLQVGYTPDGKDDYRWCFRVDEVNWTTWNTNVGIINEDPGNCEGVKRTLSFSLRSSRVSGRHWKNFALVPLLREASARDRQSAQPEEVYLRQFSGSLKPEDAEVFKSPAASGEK
structure (smiles),measurement,setting,value
O=C(O)c1cc(C(=O)O)c(C(=O)N(Cc2cccc(Oc3ccccc3)c2)[C@H]2CCCc3ccccc32)cc1C(=O)O [A-317491],"calcium-response to α,β-methylene ATP","P2X3 receptors; antagonist added 15 min before calcium imaging, 30 μM α,β-methylene-ATP stimulation",significantly decreased
CC(=O)O[C@H]1C(=O)[C@@]2(C)[C@H]([C@H](OC(=O)c3ccccc3)[C@]3(O)C[C@H](OC(=O)[C@H](O)[C@@H](NC(=O)c4ccccc4)c4ccccc4)C(C)=C1C3(C)C)[C@]1(OC(C)=O)CO[C@@H]1C[C@@H]2O [Taxol],neurite length of sensory neurons,[1],dose-dependent reduction in length
same,viability (cell count) of sensory neurons,[1],without concomitant loss of viability
COc1cc(CNC(=O)CCCC/C=C/C(C)C)ccc1O [capsaicin],calcium transients in BD-iNPC derived neurons,TRPV1 vanilloid receptor,could evoke calcium transients
NC1=N[C@H](O)[C@H]2[C@H]3O[C@]4(O)O[C@@H]([C@@H](O)[C@@]2(N1)[C@@H]4O)[C@]3(O)CO [tetrodotoxin],rapidly activating and inactivating inward currents,[2],blocked
"Nc1ncnc2c1ncn2[C@@H]1O[C@H](COP(=O)(O)CP(=O)(O)OP(=O)(O)O)[C@@H](O)[C@H]1O [α,β-methylene-ATP]",calcium transients in BD-iNPC derived neurons,P2X3 receptors; 30 μM,could evoke calcium transients
same,calcium flux response,"P2X3 receptors; 30 μM, continued culture to day 14",robust response
same,calcium flux response,"P2X3 receptors; 30 μM, neurons at day 7 post-induction",minimal response
